Experimental data as given in US11266609B2, “Bacitracin and/or daptomycin combined with cannabidiol for treatment of bacterial infections” (priority 2017, dated 2022).
In brackets after ≈: the same amount, converted by molar mass. Read-outs that look alike come from different tables or passages of the source. Positions of bridges follow the written chain, without caps; N, C: chain ends. Non-standard residues stand in square brackets, D forms with d. Residues, ends and D or L forms follow the SMILES beside them. *: point of attachment. Ileψ(thiazoline)Cys = CC[C@H](C)[C@H](N)C1=N[C@H](C(=O)*)CS1; dOrn = NCCC[C@@H](N)C(=O)O

Legend:
MRSA USA300 FPR3757 = experiment: microbe, parasite or virus in culture; format: cell-based, Staphylococcus aureus; conditions: for FIC Index: combination of cannabidiol with the respective antibiotic, synergy <= 0.5, no interaction 0.5-4.0, antagonism > 4
Experimental: (§1) The resistant bacterium MRSA USA300 FPR3757 (USA300) was the main used bacterium throughout this study. MRSA was grown in Brain Heart Infusion (BHI) or Müeller Hinton (MH) media on plate or in liquid cultures with agitation at 37° C.
(§2) An ON culture was made by inoculating a bacterial colony in either 5 mL of MH or BHI and incubating at 37° C. with agitation. The antibiotic of interest was added to a row of a sterile 96-well plate (VWR) and a serial dilution was made down the rows containing 50 μL of MH or BHI media in each well, resulting in 2-fold dilution for each row. The ON culture was diluted to OD625 at approximately 1.0 followed by a 1:100 dilution to approximately OD625=0.01 of which 50 μL was added to each well to a final volume of 100 μL. The 96-well plate was incubated at 37° C. with shaking at 225 rpm for approximately 18-24 hours. Presence and absence of growth were determined by visual appearance.
B) The other screen was based on fractional inhibitory concentration (FIC) index.

MRSA USA300 = experiment: Micro dilution growth experiments using oCelloScope, CBD combined with antibiotics (FIG. 1); format: cell-based, Staphylococcus aureus; conditions: combination with CBD 1-2 μg/mL; bacitracin 16, daptomycin 4, tetracycline 16, fosfomycin 16, dicloxacillin 0.0625, chlorhexidine 0.25, vancomycin 0.5 μg/mL (FIG. 1)
Experimental: BCA: Background corrected absorption. ? Growth control, ? CBD, -▴- Antibiotic, ? Combination.
as §1
An ON culture was made by inoculating a bacterial colony in either 5 mL of MH or BHI at incubated at 37° C. with agitation. 25 μL of specific concentrations of the antibiotic and cannabinoid to be tested was added to the desired wells of a sterile 96-well plate (Thermo Scientific). 25 μL of MH or BHI media was added to the wells only containing one of the two compounds tested. The bacterial ON culture was diluted to a final OD600 nm of 0.005 and 50 μL was dispensed into each well to a final volume of 100 μL. To decrease evaporation, 2 mL of pre-heated water was added to the corners of the 96-well plate containing cavities. The plate was placed in the oCelloScope inside an incubator at 37° C. Illumination level and focus was adjusted for each well and the growth was measured for approximately 25 hours. Measurements were performed every half an hour for the first half of the time and every hour for the last half using the UniExplorer software. Data retrieved was given in Background corrected absorption (BCA), formerly known as pixel histogram summation (PHS), an algorithm enabling determination of bacterial growth kinetics resulting from images taken with the oCelloScope camera.
A) A screen was performed using the Philips oCelloScope enabling measurements of bacterial growth in presence or absence of either cannabidiol alone or in combination with an antibiotic or antimicrobial, through a 3D scanning system in 96-well plates.

E. faecalis (13-327129) = experiment: microbe, parasite or virus in culture; format: cell-based, Enterococcus faecalis
Experimental: (§3) Additional bacteria Enterococcus faecalis (13-327129), Enterococcus faecalis (16-7418), Methicillin-resistant Staphylococcus epidermidis (933010 3F-16 b4), Listeria monocytogenes EGD, Pseudomonas aeruginosa (PA01), Salmonella typhimurium (14028), Klepsiella pneumoniae (CAS55), Vibrio cholerae (A1522), and Escherichia coli (UTI89) were either grown in BHI or Lysogeny broth (LB) media.
as §2, with “appearance. FIC index was calculated as follows (Alam M T et al. Antibacterial activity of different organic extracts of Achyranthes aspera and Cassia alata. J Sci Res. 2009).” for “appearance.”
(§4) To study the bacterial spectrum of the combination, CBD and bacitracin growth measurements of other Gram-positive bacteria tests on Enterococcus faecalis, an MRSE strain and a strain of Listeria monocytogenes were performed as described in Example 1.
(§5) The MIC for bacitracin and CBD and the respective FIC values are visualized in table 2 for the Gram-positive bacteria and are calculated based on two biological replicates.

E. faecalis (16-7418) = experiment: microbe, parasite or virus in culture; format: cell-based, Enterococcus faecalis
Experimental: as §3
as §2, with “appearance. FIC index was calculated as follows (Alam M T et al. Antibacterial activity of different organic extracts of Achyranthes aspera and Cassia alata. J Sci Res. 2009).” for “appearance.”
as §4, §5

MRSE (933010 3F-16 b4) = experiment: microbe, parasite or virus in culture; format: cell-based, Methicillin-resistant Staphylococcus epidermidis
Experimental: as §3
as §2, with “appearance. FIC index was calculated as follows (Alam M T et al. Antibacterial activity of different organic extracts of Achyranthes aspera and Cassia alata. J Sci Res. 2009).” for “appearance.”
as §4, §5

L. monocytogenes EGD = experiment: microbe, parasite or virus in culture; format: cell-based, Listeria monocytogenes
Experimental: as §3
as §2, with “appearance. FIC index was calculated as follows (Alam M T et al. Antibacterial activity of different organic extracts of Achyranthes aspera and Cassia alata. J Sci Res. 2009).” for “appearance.”
as §4, §5

Vibrio cholerae (A1522) = experiment: microbe, parasite or virus in culture; format: cell-based
Experimental: as §3
as §2, with “The 96-well plate was incubated at 37° C. with shaking at 225 rpm for approximately 18-24 hours.” left out, “appearance. FIC index was calculated as follows (Alam M T et al. Antibacterial activity of different organic extracts of Achyranthes aspera and Cassia alata. J Sci Res. 2009).” for “appearance.”
To further assess the spectrum of use for the combination of CBD and bacitracin, growth of Gram-negative bacteria upon treatment was measured as well as described in Example 1. […]

[1] = molecular target: T1, bacterial undecaprenyl pyrophosphate (UPP) synthase (Staphylococcus aureus, UniProt P60477); conditions: The Journal of Antibiotics 69, 798-805 (2016); cited from earlier work
T1 sequence (P60477 1-256): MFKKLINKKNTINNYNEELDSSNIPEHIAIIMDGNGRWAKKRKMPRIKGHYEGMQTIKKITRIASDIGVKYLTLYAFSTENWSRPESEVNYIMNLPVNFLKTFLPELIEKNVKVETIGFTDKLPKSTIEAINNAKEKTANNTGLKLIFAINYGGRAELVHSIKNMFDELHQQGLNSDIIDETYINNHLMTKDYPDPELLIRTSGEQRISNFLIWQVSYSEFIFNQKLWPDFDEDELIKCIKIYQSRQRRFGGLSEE

[2] = system: Gram-positive bacteria including methicillin-resistant Staphylococcus aureus (MRSA); conditions: particularly against Gram-positive bacteria including MRSA; cited from earlier work
Escherichia coli (UTI89) = experiment: MIC, Gram-negative bacteria; format: cell-based; conditions: above tested concentrations
Experimental: as §3
as §2, with “appearance. FIC index was calculated as follows (Alam M T et al. Antibacterial activity of different organic extracts of Achyranthes aspera and Cassia alata. J Sci Res. 2009).” for “appearance.”
(§6) To further assess the spectrum of use for the combination of CBD and bacitracin, growth of Gram-negative bacteria upon treatment was measured as well as described in Example 1.
(§7) The Gram-negative bacteria tested were strains of Pseudomonas aeruginosa, Salmonella typhimurium, Klepsiella pneumoniae, Vibrio cholera, and Escherichia coli. MIC for CBD and bacitracin in the Gram-negative bacteria are visualized in table 3, and were both above tested concentrations.

[3] = system: Klepsiella pneumoniae (CAS55); experiment: MIC, Gram-negative bacteria; format: cell-based; conditions: above tested concentrations
Experimental: as §3
as §2, with “appearance. FIC index was calculated as follows (Alam M T et al. Antibacterial activity of different organic extracts of Achyranthes aspera and Cassia alata. J Sci Res. 2009).” for “appearance.”
as §6, §7

[4] = system: Pseudomonas aeruginosa (PA01); experiment: MIC, Gram-negative bacteria; format: cell-based; conditions: above tested concentrations
Experimental: as §3
as §2, with “appearance. FIC index was calculated as follows (Alam M T et al. Antibacterial activity of different organic extracts of Achyranthes aspera and Cassia alata. J Sci Res. 2009).” for “appearance.”
as §6, §7

[5] = system: Salmonella typhimurium (14028); experiment: MIC, Gram-negative bacteria; format: cell-based; conditions: Salmonella enterica, above tested concentrations
Experimental: as §3
as §2, with “appearance. FIC index was calculated as follows (Alam M T et al. Antibacterial activity of different organic extracts of Achyranthes aspera and Cassia alata. J Sci Res. 2009).” for “appearance.”
as §6, §7

[6] = MRSA USA300 FPR3757, Table 2, two biological replicates

For `CC[C@H](C)[C@H](N)C1=N[C@H](C(=O)N[C@@H](CC(C)C)C(=O)N[C@H](CCC(=O)O)C(=O)N[C@H](C(=O)N[C@H]2CCCCNC(=O)[C@H](CC(N)=O)NC(=O)[C@@H](CC(=O)O)NC(=O)[C@H](Cc3cnc[nH]3)NC(=O)[C@@H](Cc3ccccc3)NC(=O)[C@H]([C@@H](C)CC)NC(=O)[C@@H](CCCN)NC2=O)[C@@H](C)CC)CS1` [Bacitracin] ({Ileψ(thiazoline)Cys}-L[dE]IK[dOrn]I[dF]H[dD]N; lactam 4-C), the MIC (MRSA USA300 FPR3757; [6]) was 64 µg/mL (≈ 45 µM), the Fold decreased bacitracin (MRSA USA300 FPR3757; MRSA USA300 FPR3757, bacitracin MIC combined with CBD compared to bacitracin alone) was 16-32 fold and the MIC (MRSA USA300 FPR3757; WT USA300) was 64 µg/mL (≈ 45 µM). The “FIC Index” value (MRSA USA300 FPR3757; WT USA300) was 0.30, the “synergistic potential in growth curves” value (MRSA USA300) was “synergistic potential” and the MIC (E. faecalis (13-327129); 13-327129) was 128 µg/mL. For the same compound, the Fold decreased bacitracin (E. faecalis (13-327129); E. faecalis (13-327129), bacitracin MIC combined with CBD compared to bacitracin alone) was 16 fold, the MIC (E. faecalis (16-7418); 16-7418) was 128 µg/mL and the MIC (MRSE (933010 3F-16 b4); MRSE (933010 3F-16 b4)) was 32 µg/mL. For the same compound, the Fold decreased bacitracin (MRSE (933010 3F-16 b4); MRSE (933010 3F-16 b4), bacitracin MIC combined with CBD compared to bacitracin alone) was 64 fold, the MIC (L. monocytogenes EGD; EGD) was 512 µg/mL and the Fold decreased bacitracin (L. monocytogenes EGD; L. monocytogenes EGD, bacitracin MIC combined with CBD compared to bacitracin alone) was 8-16 fold. The MIC (Vibrio cholerae (A1522); Vibrio cholerae (A1522), above tested concentrations) was >1024 µg/mL.
With `Cc1onc(-c2c(Cl)cccc2Cl)c1C(=O)N[C@@H]1C(=O)N2[C@@H]1SC(C)(C)[C@@H]2C(=O)O` [Dicloxacillin] the MIC (MRSA USA300 FPR3757; Staphylococcus aureus) was 0.25 µg/mL (≈ 0.532 µM), the “FIC Index” value (MRSA USA300 FPR3757; WT USA300) was 2 and the “synergistic potential in growth curves” value (MRSA USA300) was “no synergistic potential”.
For `CO/N=C(\C(=O)N[C@@H]1C(=O)N2C(C(=O)O)=C(CSc3nc(=O)c(=O)[nH]n3C)CS[C@H]12)c1csc(N)n1` [Ceftriaxone], the MIC (MRSA USA300 FPR3757; Staphylococcus aureus) was 32 µg/mL (≈ 57.7 µM) and the “FIC Index” value (MRSA USA300 FPR3757; WT USA300) was 1.5.
For `CCCCCc1cc(O)c(C/C=C(\C)CCC=C(C)C)c(O)c1` [Cannabigerol (CBG), Cannabigerol], the “FIC index (with bacitracin)” value (MRSA USA300 FPR3757; USA300) was 0.88, the “FIC index (with daptomycin)” value (MRSA USA300 FPR3757; USA300) was 1.0 and the MIC (MRSA USA300 FPR3757; USA300, Table 4, unit not given) was 4.
For Viridicatumtoxin, the IC50 [1] is given as 4 µM and the antimicrobial activity [2] is given as “showed antimicrobial activity”.
Compound `C=C(C)[C@@H]1CCC(C)=C[C@H]1c1c(O)cc(CCCCC)cc1O` [Cannabidiol (CBD), Cannabidiol] has an MIC (MRSA USA300 FPR3757; [6]) of 4 µg/mL (≈ 12.7 µM), an MIC (MRSA USA300 FPR3757; Staphylococcus aureus) of 4 µg/mL (≈ 12.7 µM) and an MIC (E. faecalis (13-327129); Enterococcus faecalis, E. faecalis (13-327129), read-out: MIC) of 16 µg/mL. The MIC (E. faecalis (16-7418); Enterococcus faecalis, E. faecalis (16-7418), read-out: MIC) was 16 µg/mL, the MIC (MRSE (933010 3F-16 b4); Staphylococcus epidermidis, MRSE) was 4 µg/mL and the MIC (L. monocytogenes EGD; Listeria monocytogenes, L. monocytogenes EGD, read-out: MIC) was 4 µg/mL. The MIC (Escherichia coli (UTI89)) was > 128 µg/mL, the MIC [3] was > 128 µg/mL and the MIC [4] was > 128 µg/mL. The MIC [5] was > 128 µg/mL and the MIC (Vibrio cholerae (A1522); Vibrio cholerae) was > 128 µg/mL.
